Data reported in patent US20220193439A1, “TREATMENTS FOR EYE INFECTION” (priority 2020, published 2022).
Several values for one entry are separate records, joined by “and”; a condition that tells them apart may be missing. Equal entries are not always repeated.

How the values were obtained:
Format in all cases: cell-based
[1] = system: Pseudomonas aeruginosa bacteria; assay: in vitro study of keratitis treatments, petri dish quadrants scanned with laser beam; conditions: dose approx. 4.5 J/cm^2, irradiance approx. 9 mW/cm^2, ambient air, approx. 70 hours after exposure
From the text: FIG. 13 illustrates an example system 300 for an in vitro study of keratitis treatments. The system 300 includes an illumination system 320 that emits a laser beam that can be scanned across a petri dish containing a sample. The system 300 also includes a UV window 350 that can be selectively employed to transmit UV light in the study. Additionally, the system 300 includes a holder 360 that holds the petri dish. The holder 360 includes tubing to receive and deliver a concentration of O2 to some samples in the study. Furthermore, the system 300 includes a micrometer 370 to determine the position of the holder 360 and thus the petri dish along a vertical axis (z-axis) relative to the illumination system 320.
FIG. 14A illustrates a petri dish with an example sample 30 for the in vitro study of keratitis treatments employing the system 300. The preparation of the sample 30 involves inoculation with Pseudomonas aeruginosa bacteria (which causes keratitis) and incubation for approximately 48 hours. The resulting bacterial growth in the sample 30 is visible in FIG. 14A. The sample 30 is divided into four quadrants 30a-d to mark areas of the bacterial growth that are exposed to different conditions.
FIG. 14B illustrates the delivery of the laser beam from the illumination system 320 to selected quadrants of the sample 30. As shown, the laser beam is scanning the second quadrant 30b. […]

Pseudomonas aeruginosa [2] = assay: riboflavin/UVA LED treatment under normoxic conditions, CFU counting (procedure 2230); conditions: 0.1% riboflavin, UVA LED
Protocol: According to an example procedure 2230 shown in FIG. 23C, a dilution factor is determined for Pseudomonas aeruginosa bacteria in step 2230a, and the Pseudomonas aeruginosa is loaded into wells in cell culture plate (e.g., a 96-well plate) in step 2230b. […] For example, the LED light source may emit UVA light at a size of approximately 6.5 mm. A petri dish is inoculated with the mixture from the wells in step 2230e, and the petri dish is incubated (e.g., overnight) in step 2230f. After incubation, the effect of the treatment parameters is evaluated by counting CFU in step 2230g.

bacterial growth = assay: riboflavin solution without photoactivation, bacterial growth
From the text: Studies by the present inventors indicate that the antimicrobial effect depends on UV dose and power.

Pseudomonas aeruginosa [3] = assay: riboflavin/UVA laser treatment under hyperoxic conditions, CFU counting (procedure 2220); conditions: for average cell death percentage / CFU: UVA laser, hyperoxic
Protocol: According to an example procedure 2220 shown in FIG. 22B, a dilution factor is determined for Pseudomonas aeruginosa bacteria in step 2220a, and the Pseudomonas aeruginosa is loaded into wells in cell culture plate (e.g., a 96-well plate) in step 2220b. […] In particular, a laser beam of UVA light can be applied with a size of approximately 6.5 mm at 8 Hz. A petri dish is inoculated with the mixture from the wells in step 2220e, and the petri dish is incubated (e.g., overnight) in step 2220f. After incubation, the effect of the treatment parameters is evaluated by counting CFU in step 2220g.

Pseudomonas aeruginosa [4] = assay: riboflavin/UVA laser treatment under normoxic conditions, CFU counting (procedure 2210); conditions: UVA laser
Protocol: According to an example procedure 2210 shown in FIG. 22A, a dilution factor is determined for Pseudomonas aeruginosa bacteria in step 2210a, and the Pseudomonas aeruginosa is loaded into wells in cell culture plate (e.g., a 96-well plate) in step 2210b. […] In particular, a laser beam of ultraviolet A (UVA) light can be applied with a size of approximately 6.5 mm at 8 Hz. A petri dish is inoculated with the mixture from the wells in step 2210e and incubated (e.g., overnight) in step 2210f. After incubation, the effect of the particular treatment parameters is evaluated by counting colony forming units (CFU) in step 2210g.

[5] = 0.1% riboflavin, 2.5 mW/cm^2, 2.5 J/cm^2, n=3
[6] = 0.1% riboflavin, 40 mW/cm^2, 40 J/cm^2, n=3
[7] = 0.1% riboflavin, irradiance 2.5 mW/cm^2, dose 2.5 J/cm^2, replicates 1-3
[8] = 0.1% riboflavin, irradiance 40 mW/cm^2, dose 40 J/cm^2, replicates 1-3

SMILES: Cc1cc2nc3c(=O)[nH]c(=O)nc-3n(C[C@H](O)[C@H](O)[C@H](O)CO)c2cc1C [riboflavin]
- bacteria in quadrants that received riboflavin and photoactivating UV light [1]: effectively eliminated
- average cell death percentage (Pseudomonas aeruginosa [2]; 8.6 mW/cm^2, 8.6 J/cm^2, n=3): -9.3%
- average cell death percentage (Pseudomonas aeruginosa [2]; 75 mW/cm^2, 75 J/cm^2, n=3): 73.6%
- CFU (Pseudomonas aeruginosa [2]; irradiance 8.6 mW/cm^2, dose 8.6 J/cm^2, replicates 1-3): 156 CFU and 94 CFU and 124 CFU
- CFU (Pseudomonas aeruginosa [2]; irradiance 75 mW/cm^2, dose 75 J/cm^2, replicates 1-3): 26 CFU and 29 CFU and 35 CFU
- effect of riboflavin solution on its own on bacterial growth (bacterial growth): does not directly inhibit bacterial growth
- average cell death percentage (Pseudomonas aeruginosa [3]; [5]): 16.1%
- average cell death percentage (Pseudomonas aeruginosa [3]; [6]): 82.7%
- CFU (Pseudomonas aeruginosa [3]; [7]): 52 CFU and 34 CFU and 12 CFU
- CFU (Pseudomonas aeruginosa [3]; [8]): 9 CFU and 14 CFU and 4 CFU
- average cell death percentage (Pseudomonas aeruginosa [3]; 0.2% riboflavin, 20 mW/cm^2, 20 J/cm^2, n=3): 58.9%
- average cell death percentage (Pseudomonas aeruginosa [3]; 0.2% riboflavin, 40 mW/cm^2, 20 J/cm^2, n=3): 38.1%
- CFU (Pseudomonas aeruginosa [3]; 0.2% riboflavin, irradiance 2.5 mW/cm^2, dose 2.5 J/cm^2, replicates 1-3): 140 CFU and 101 CFU and 114 CFU
- CFU (Pseudomonas aeruginosa [3]; 0.2% riboflavin, irradiance 40 mW/cm^2, dose 20 J/cm^2, replicates 1-3): 78 CFU and 63 CFU and 77 CFU
- average cell death percentage (Pseudomonas aeruginosa [3]; 0.22% riboflavin, 2.5 mW/cm^2, 2.5 J/cm^2, n=3): 13.9%
- average cell death percentage (Pseudomonas aeruginosa [3]; 0.22% riboflavin, 40 mW/cm^2, 40 J/cm^2, n=3): 76.9%
- CFU (Pseudomonas aeruginosa [3]; 0.22% riboflavin, irradiance 2.5 mW/cm^2, dose 2.5 J/cm^2, replicates 1-3): 218 CFU and 187 CFU and 191 CFU
- CFU (Pseudomonas aeruginosa [3]; 0.22% riboflavin, irradiance 40 mW/cm^2, dose 40 J/cm^2, replicates 1-3): 56 CFU and 83 CFU and 33 CFU
- effect of supplemental oxygen on bacterial death (Pseudomonas aeruginosa [3]; riboflavin photoactivated with a scanning laser): does create additional bacterial death
- average cell death percentage (Pseudomonas aeruginosa [4]; [5]): 29.0%
- average cell death percentage (Pseudomonas aeruginosa [4]; [6]): 67.1%
- CFU (Pseudomonas aeruginosa [4]; [7]): 82 CFU and 91 CFU (2×)
- CFU (Pseudomonas aeruginosa [4]; [8]): 21 CFU and 32 CFU and 61 CFU
- average cell death percentage (Pseudomonas aeruginosa [4]; 0.5% riboflavin, 2.5 mW/cm^2, 2.5 J/cm^2, n=3): −55.4%
- average cell death percentage (Pseudomonas aeruginosa [4]; 0.5% riboflavin, 40 mW/cm^2, 40 J/cm^2, n=3): 26.0%
- CFU (Pseudomonas aeruginosa [4]; 0.5% riboflavin, irradiance 2.5 mW/cm^2, dose 2.5 J/cm^2, replicates 1-3): 86 CFU (2×) and 51 CFU
- CFU (Pseudomonas aeruginosa [4]; 0.5% riboflavin, irradiance 40 mW/cm^2, dose 40 J/cm^2, replicates 1-3): 37 CFU (2×) and 35 CFU
